{"source": "patent US20050009837A1", "about": "“Modulators of lipid metabolism and methods of use” (City of Hope, priority 2003, published 2005)", "key": {"NIH 3T3-L1 cells": {"tested_on": "NIH 3T3-L1 cells", "assay": "Toxicity in NIH 3T3-L1 cells during differentiation", "assay_type": "cell-based", "conditions": "200 nM T0901317, 7.5 μM Clotrimazole or both, 7 days", "description": "(§1) NIH 3T3-L1 cells were maintained in growth media consisting of Dulbecco's modified Eagle's medium (DMEM) supplemented with 10% calf bovine serum (CBS), 50 U/ml penicillin G and 50 μg/ml streptomycin sulfate. To induce NIH 3T3-L1 differentiation into adipocytes, confluent cells were transferred from their growth media to DMEM containing 10% fetal bovine serum (FBS), 5 μg/ml insulin, 0.5 mM 3-isobutyl-1-methylxanthine (IBMX) and 1 μM dexamethasone for 7 days. During the differentiation period, cells also optionally received 200 nM T0901317, 7.5 μM Clotrimazole or both."}, "human PXR": {"molecular_target": "human PXR (Homo sapiens, UniProt O75469)", "sequence (O75469 whole entry)": "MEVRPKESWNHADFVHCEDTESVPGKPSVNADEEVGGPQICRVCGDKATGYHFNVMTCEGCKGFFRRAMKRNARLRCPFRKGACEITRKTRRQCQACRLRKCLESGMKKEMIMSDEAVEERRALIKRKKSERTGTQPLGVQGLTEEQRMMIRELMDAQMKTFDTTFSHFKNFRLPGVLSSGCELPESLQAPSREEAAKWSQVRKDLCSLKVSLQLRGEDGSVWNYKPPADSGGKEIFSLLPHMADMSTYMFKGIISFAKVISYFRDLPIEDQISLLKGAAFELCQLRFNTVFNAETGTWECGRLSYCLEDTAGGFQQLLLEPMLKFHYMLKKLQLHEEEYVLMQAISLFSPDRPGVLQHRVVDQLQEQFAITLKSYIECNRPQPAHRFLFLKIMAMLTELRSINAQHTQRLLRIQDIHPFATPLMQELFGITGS", "conditions": "cited from earlier work"}, "[1]": {"molecular_target": "T1, LXRβ-RXR heterodimers / SRC-1 (Homo sapiens, UniProt P55055)", "T1 construct": "made in house; host or cells: receptors translated in vitro", "T1 sequence (P55055 whole entry, one chain of several)": "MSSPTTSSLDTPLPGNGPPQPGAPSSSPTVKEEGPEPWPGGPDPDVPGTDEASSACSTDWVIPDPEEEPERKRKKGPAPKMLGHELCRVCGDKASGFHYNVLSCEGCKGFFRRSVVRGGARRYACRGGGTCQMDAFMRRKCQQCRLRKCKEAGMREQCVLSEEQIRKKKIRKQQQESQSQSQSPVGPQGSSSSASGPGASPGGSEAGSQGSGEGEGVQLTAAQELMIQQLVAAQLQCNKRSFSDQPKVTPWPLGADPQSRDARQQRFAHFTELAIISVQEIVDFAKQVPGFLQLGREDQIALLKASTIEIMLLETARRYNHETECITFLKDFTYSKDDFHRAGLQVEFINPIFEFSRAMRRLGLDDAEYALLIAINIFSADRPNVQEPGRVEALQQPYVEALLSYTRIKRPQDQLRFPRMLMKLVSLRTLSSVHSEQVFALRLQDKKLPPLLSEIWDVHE", "assay": "In vitro coactivator recruitment/displacement assay (gel), LXRβ, RXR, GST-SRC-1, 32P-LXRE probe", "assay_type": "biochemical", "conditions": "10 μM", "description": "This was tested more directly using an in vitro coactivator recruitment/coactivator displacement assay. This assay has the advantage that it is performed with receptors bound to DNA and that it measures a direct interaction between receptor and coactivator with no interference by other proteins that may indirectly stabilize the complex. The assay was performed by mixing in vitro translated LXRα or LXRβ, RXR, 5 μg of purified GST-SRC-1 and a ^32P-labeled LXRE probe with or without 10 μM Clotrimazole according to previously described methods. Wang et al., Mol. Cell 3:543-553, 1999. The complexes then were separated through 5.5% polyacrylamide gels. The probe used represents a DR-4 element derived from the human SREBP-1c promoter (nt 337-361, accession no. AB046200)."}, "human LXRα": {"molecular_target": "T2, human LXRα (Homo sapiens, UniProt Q13133)", "T2 construct": "expressed in transfected cells; host or cells: CV-1 cells", "T2 sequence (Q13133 1-447)": "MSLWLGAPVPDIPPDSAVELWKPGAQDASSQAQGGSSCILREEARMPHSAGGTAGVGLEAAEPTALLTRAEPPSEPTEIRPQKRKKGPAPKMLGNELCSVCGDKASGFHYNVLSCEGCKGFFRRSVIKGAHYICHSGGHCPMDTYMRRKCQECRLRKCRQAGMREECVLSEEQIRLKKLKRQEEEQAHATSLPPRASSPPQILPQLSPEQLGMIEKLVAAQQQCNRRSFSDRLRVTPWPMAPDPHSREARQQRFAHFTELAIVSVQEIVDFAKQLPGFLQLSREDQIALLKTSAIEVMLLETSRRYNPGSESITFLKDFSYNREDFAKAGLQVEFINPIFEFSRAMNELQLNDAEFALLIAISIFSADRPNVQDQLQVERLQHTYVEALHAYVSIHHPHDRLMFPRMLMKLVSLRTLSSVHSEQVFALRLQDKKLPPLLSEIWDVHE", "T2 sequence (P19793 1-462 partner)": "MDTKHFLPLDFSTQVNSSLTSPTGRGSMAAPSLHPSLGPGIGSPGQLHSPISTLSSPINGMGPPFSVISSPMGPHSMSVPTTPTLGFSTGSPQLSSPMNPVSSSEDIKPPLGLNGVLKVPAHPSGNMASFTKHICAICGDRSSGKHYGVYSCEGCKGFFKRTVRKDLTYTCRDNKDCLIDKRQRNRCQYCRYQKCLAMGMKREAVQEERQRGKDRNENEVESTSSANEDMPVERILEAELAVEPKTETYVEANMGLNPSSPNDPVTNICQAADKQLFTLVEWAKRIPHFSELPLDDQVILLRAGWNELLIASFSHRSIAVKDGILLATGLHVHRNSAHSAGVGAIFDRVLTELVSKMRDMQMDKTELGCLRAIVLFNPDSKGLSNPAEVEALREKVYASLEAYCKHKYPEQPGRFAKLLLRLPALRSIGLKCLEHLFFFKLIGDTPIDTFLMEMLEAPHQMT", "assay": "Full-length hLXRα/hRXRα LXREx3 TK-Luc reporter assay in transfected CV-1 cells", "assay_type": "cell-based", "conditions": "20 μM, 40 hours", "description": "CV-1 cells were grown in DMEM supplemented with 10% resin-charcoal stripped fetal bovine serum, 50 U/ml penicillin G and 50 μg/ml streptomycin sulfate at 37° C. in 5% CO2. Cells were plated to 50-80% confluence one day prior to transfection using phenol red-free DMEM-FBS. The cells were transfected by lipofection using N-[1-(2,3-dioleoyloxy)propyl]-N,N,N-ammonium methyl sulfate according to manufacturer's instructions (Boehringer Mannheim).\nGenes encoding the following full-length proteins, which are suitable for use in the studies described herein, were cloned into pCMX: human RXRα (Gene Bank accession X52773) and human LXRα (GenBank accession U22662). The cells were transfected with CMX-βgal and luciferase constructs. The CMX-βGal construct contained the ligand binding domain of human RXR (hRXRα) and the ligand binding domain of human LXRα (hLXRα) as indicated in FIG. 1. The luciferase reporter construct (LXREx3 TK-Luc) contained the herpes virus thymidine kinase promoter (−105/+51) linked to three copies of the response element LXRE. After transfection, the cells were treated with 20 μM of a synthetic azole test compound or vehicle alone for 40 hours in phenol red-free DMEM-FBS."}, "NIH3T3-L1 adipocytes": {"tested_on": "NIH3T3-L1 adipocytes", "assay": "Triglyceride content (Nile Red) of NIH3T3-L1 cells differentiated to adipocytes", "assay_type": "cell-based", "conditions": "7 days", "description": "as §1\nNIH3T3-L1 cells were allowed to differentiate for 7 days in the presence of a well-established differentiation cocktail containing dexamethazole (1 μm), IBMX (0.5 mM) and insulin (5 μg/ml) in the absence or presence of T0901317 (200 nM) or Clotrimazole (7.5 μm). The cells then were fixed and stained with Nile Red, which stains triglycerides (TG) green, and DAPI to visualize nuclei (in blue). TG content of the cell reflected increased or decreased lipogenesis."}}, "data": [{"smiles": "Clc1ccccc1C(c1ccccc1)(c1ccccc1)n1ccnc1", "note": "[Clotrimazole]", "values": [{"measurement": "toxicity", "setting": "NIH 3T3-L1 cells", "value": "No toxicity"}, {"measurement": "activity on human PXR", "setting": "human PXR", "value": "agonist"}, {"measurement": "effect on LXRβ-RXR heterodimers (bound to LXRE probe)", "setting": "[1]; lane 7", "value": "no effect"}, {"measurement": "interaction of LXRβ-RXR with SRC-1", "setting": "[1]; lane 8", "value": "prevented the interaction with SRC-1"}, {"measurement": "antagonism of constitutive activation mediated by LXR (hLXRα activity, LXREx3 TK-Luc)", "setting": "human LXRα", "value": "antagonize the constitutive activation mediated by LXR"}, {"measurement": "TG content compared to treatment with T0901317 alone", "setting": "NIH3T3-L1 adipocytes; Clotrimazole 7.5 μm plus T0901317 200 nM", "value": "reduction in TG content"}, {"measurement": "TG content compared to differentiation cocktail only", "setting": "NIH3T3-L1 adipocytes; T0901317 200 nM or Clotrimazole 7.5 μm", "value": "decreased"}]}]}
